Results reported in article PMC10461232, “Structure-Based Design of Transport-Specific Multitargeted One-Carbon Metabolism Inhibitors in Cytosol and Mitochondria” (Journal of Medicinal Chemistry, 2023).
pIC50: −log10 of the molar value. Where two headings read alike, the source gives them in different places.

Columns and labels:
HPNE (RFC) cells = test: Proliferation inhibition, HPNE normal pancreatic epithelial cells; format: cell-based; conditions: Homo sapiens, folate- and glycine-free RPMI, 25 nM leucovorin
Excerpt: (§1) The RFC-, PCFT-, and FR-null MTXRIIOua^R2–4 (R2), and RFC- (PC43-10), PCFT- (R2/PCFT4), FRα- (RT16), and FRβ- (D4) expressing CHO sublines were previously described.[62]−[64],[76] HPAC pancreatic cancer cells were generously provided by Dr. Yubin Ge (Karmanos Cancer Institute, Detroit, MI). Human pancreatic normal epithelial (HPNE) cells[67] were a gift from M. Oulette (University of Nebraska Medical Center, Omaha, NE). KB human nasopharyngeal carcinoma cells were purchased from the American Type Culture Collection (Manassas, VA). All human cell lines were validated by STR analysis by Genetica DNA Laboratories (Burlington, NC). Cell lines were tested for Mycoplasma by PCR using a Mycloplasma testing kit (Venor GeM Mycoplasma Detection Kit, Sigma). Frozen stocks were generated from authenticated Mycoplasma-free cultures.

[1] = test system: R2/PCFT4 (PCFT) CHO cells; test: Growth inhibition, R2/PCFT4 CHO cells expressing human PCFT; format: cell-based, Chinese hamster; conditions: Cricetulus griseus, 96 h, read-out: IC50 R2/PCFT4 (PCFT)
HPAC (RFC/PCFT) cells = test: Proliferation inhibition, HPAC pancreatic adenocarcinoma cells; format: cell-based, human; conditions: for pIC50: HPAC cells, folate- and glycine-free RPMI, 25 nM leucovorin, mean (SE)
Excerpt: as §1

D4 (FRβ) CHO cells = test: Growth inhibition, D4 CHO cells expressing human FRβ; format: cell-based, Chinese hamster; conditions: for pIC50: Cricetulus griseus, CHO, 96 h, mean (SE); for difference between D4 (FRβ) and RT16 (FRα) IC50: RT16 versus D4 CHO cells
KB (RFC/PCFT/FRα) cells = test: Growth inhibition, KB nasopharyngeal carcinoma cells; format: cell-based, human; conditions: Homo sapiens, KB, folate-free RPMI 1640, 2 nM leucovorin, mean (SE)
Experimental: The CHO cells were cultured in α-minimal essential medium (MEM) supplemented with 10% bovine calf serum (Fisher Scientific), penicillin (1000 U/mL)/streptomycin (1000 μg/mL), and 2 mM L-glutamine at 37 °C with 5% CO2. All of the R2 transfected cells (PC43-10, RT16, R2/PCFT4) were cultured in complete α-MEM media plus 1 mg/mL G418. Prior to the cytotoxicity assays (see below), RT16 and D4 cells were cultured for 3 days in complete folate-free RPMI 1640 (without added folate), and R2/PCFT4 and R2 cells were cultured in complete folate-free RPMI 1640 supplemented with dialyzed fetal bovine serum (Fisher Scientific) and 25 nM leucovorin plus 1 mg/mL G418. KB cells were routinely cultured in folate-free RPMI 1640 medium, supplemented with 10% fetal bovine serum (Fisher Scientific), penicillin-streptomycin solution, and 2 mM L-glutamine at 37 °C with 5% CO2.
For growth inhibition studies, cells (CHO, KB) were plated in 96-well dishes (∼2500–5000 cells/well, total volume of 200 μL medium) over a range of antifolate concentrations.[69],[77] The medium was folate-free RPMI 1640 with 10% dialyzed serum and antibiotics supplemented with 25 nM leucovorin for experiments with R2, PC43-10, and R2/PCFT4 cells. For experiments with RT16, D4, and KB cells, cells were cultured in folate-free RPMI medium with 10% dialyzed fetal bovine serum and antibiotics; the medium was supplemented with 2 nM leucovorin. […] Incubations were routinely for up to 96 h. Viable cells (reflecting cell viability) were assayed with Cell Titer Blue reagent (Promega, Madison, WI), with fluorescence measured (590 nm emission, 560 nm excitation) with a fluorescence plate reader.

[2] = test system: R2 (MTXRIIOuaR2-4) CHO cells; test: Growth inhibition, transporter-null R2 CHO cells; format: cell-based, Chinese hamster; conditions: Cricetulus griseus, 96 h, read-out: IC50 R2
RT16 (FRα) CHO cells = test: Growth inhibition, RT16 CHO cells expressing human FRα; format: cell-based, Chinese hamster; conditions: 96 h, mean (SE)
PC43-10 (RFC) CHO cells = test: Growth inhibition, PC43-10 CHO cells expressing human RFC; format: cell-based, Chinese hamster; conditions: Cricetulus griseus, 96 h, read-out: IC50 PC43-10 (RFC)
[3] = read-out: IC50 D4 (FRβ), CHO cells expressing human FRβ, 96 h, 2 nM leucovorin
[4] = Cricetulus griseus, read-out: IC50 RT16 (FRα), CHO cells expressing human FRα, 96 h, 2 nM leucovorin
[5] = CHO cells expressing human PCFT, 25 nM leucovorin, mean (SE)
[6] = CHO cells expressing human FRβ, 2 nM leucovorin, read-out: IC50 D4 (FRβ)
[7] = transporter-null CHO cells, 25 nM leucovorin, mean (SE)
[8] = Cricetulus griseus, CHO cells expressing human FRα, 2 nM leucovorin, read-out: IC50 RT16 (FRα)
[9] = CHO cells expressing human RFC, 25 nM leucovorin, mean (SE)

SMILES	pIC50 (HPNE (RFC) cells)	pIC50 [1]	pIC50 (HPAC (RFC/PCFT) cells)	pIC50 (HPAC (RFC/PCFT) cells; Homo sapiens, HPAC)	pIC50 (D4 (FRβ) CHO cells; [3])	pIC50 (KB (RFC/PCFT/FRα) cells)	pIC50 ([2]; CHO)	pIC50 (RT16 (FRα) CHO cells; [4])	pIC50 (PC43-10 (RFC) CHO cells)	pIC50 [1, 5]	pIC50 (D4 (FRβ) CHO cells; [6])	difference between D4 (FRβ) and RT16 (FRα) IC50 (D4 (FRβ) CHO cells)	pIC50 [2, 7]	pIC50 (RT16 (FRα) CHO cells; [8])	pIC50 (PC43-10 (RFC) CHO cells; [9])	IC50 HPAC (RFC/PCFT) (HPAC (RFC/PCFT) cells) [nM]	pIC50 (RT16 (FRα) CHO cells; CHO cells expressing human FRα, 2 nM leucovorin, read-out: IC50 RT16 (FRα))
Nc1nc2ccn(CCCCCc3ccc(C(=O)N[C@@H](CCC(=O)O)C(=O)O)s3)c2c(=O)[nH]1 [Compound 3]	< 5.30	< 6.00	6.13	6.13	8.10	8.13	< 6.00	7.84	< 6.00	–	–	–	–	–	–	–	–
Nc1nc2ccn(CCCc3ccc(C(=O)N[C@@H](CCC(=O)O)C(=O)O)s3)c2c(=O)[nH]1 [Compound 4]	< 5.30	–	–	5.53	–	7.63	–	–	–	6.30	8.71	20- to 40 fold	< 6.00	7.48	< 6.00	–	–
Nc1nc2ccn(CCCOc3ccc(C(=O)N[C@@H](CCC(=O)O)C(=O)O)cc3)c2c(=O)[nH]1 [Compound 5, (4-(3-(2-Amino-4-oxo-3,4-dihydro-5H-pyrrolo[3,2-d]pyrimidin-5-yl)propoxy)benzoyl)-L-glutamic Acid]	< 5.30	–	5.78	5.80 to 5.92	–	8.08	–	–	–	< 6.00	9.35	20- to 40 fold	< 6.00	7.73	< 6.00	–	–
Nc1nc2ccn(CCOc3ccc(C(=O)N[C@@H](CCC(=O)O)C(=O)O)cc3)c2c(=O)[nH]1 [Compound 6, (4-(3-(2-Amino-4-oxo-3,4-dihydro-5H-pyrrolo[3,2-d]pyrimidin-5-yl)ethoxy)benzoyl)-L-glutamic Acid]	< 5.30	–	–	5.34	–	7.95	–	–	–	6.37	8.79	20- to 40 fold	< 6.00	7.17	< 6.00	–	–
Nc1nc2ccn(CCCNc3ccc(C(=O)N[C@@H](CCC(=O)O)C(=O)O)cc3)c2c(=O)[nH]1 [Compound 8, (4-((3-(2-Amino-4-oxo-3,4-dihydro-5H-pyrrolo[3,2-d]pyrimidin-5-yl)propyl)amino)benzoyl)-L-glutamic Acid]	< 5.30	–	–	< 5.30	–	8.21	–	–	–	< 6.00	–	–	< 6.00	8.16	< 6.00	–	–
Nc1nc2ccn(CCCCCc3ccc(C(=O)N[C@@H](CCC(=O)O)C(=O)O)cc3)c2c(=O)[nH]1 [Compound 9]	< 5.30	–	–	5.79	–	8.20	–	–	–	< 6.00	8.20	–	< 6.00	7.87	< 6.00	–	–
Nc1nc2ccn(CCCCCc3ccc(C(=O)N[C@@H](CCC(=O)O)C(=O)O)c(F)c3)c2c(=O)[nH]1 [Compound 11, (4-(5-(2-Amino-4-oxo-3,4-dihydro-5H-pyrrolo[3,2-d]pyrimidin-5-yl)pentyl)-2-fluorobenzoyl)-L-glutamic Acid]	< 5.30	< 6.00	–	5.91	8.16	8.20	< 6.00	7.57	< 6.00	–	–	–	–	–	–	–	–
Nc1nc2ccn(CCCCc3cc(F)c(C(=O)N[C@@H](CCC(=O)O)C(=O)O)c(F)c3)c2c(=O)[nH]1 [Compound 12, (4-(4-(2-Amino-4-oxo-3,4-dihydro-5H-pyrrolo[3,2-d]pyrimidin-5-yl)butyl)-2,6-difluorobenzoyl)-L-glutamic Acid]	< 5.30	–	–	< 5.30	–	8.03	–	–	–	< 6.00	8.12	–	< 6.00	8.59	< 6.00	–	–
Nc1nc2ccn(CCCc3ccc(C(=O)N[C@@H](CCC(=O)O)C(=O)O)c(F)c3)c2c(=O)[nH]1 [Compound 13, (4-(3-(2-Amino-4-oxo-3,4-dihydro-5H-pyrrolo[3,2-d]pyrimidin-5-yl)propyl)-2-fluorobenzoyl)-L-glutamic Acid]	< 5.30	–	–	6.78	–	8.08	–	–	–	7.01	9.20	20- to 40 fold	< 6.00	7.79	6.63	2600 to 4600	–
Nc1nc2ccn(CCCCc3ccc(C(=O)N[C@@H](CCC(=O)O)C(=O)O)cc3)c2c(=O)[nH]1 [Compound 15]	< 5.30	–	–	5.59	–	8.17	–	–	–	< 6.00	–	–	< 6.00	> 8.52	< 6.00	–	8.79
